From ChEMBL document CHEMBL4340504, “Caged-xanthone from Cratoxylum formosum ssp. pruniflorum inhibits malignant cancer phenotypes in multidrug-resistant human A549 lung cancer cells through down-regulation of NF-κB” (Bioorg Med Chem, 2019)
The source made the active and inactive calls.

Columns and labels:
[1] = Antiinvasive activity in human A549RT-eto cells assessed as reduction in cell invasion at 1.5 ug/ml measured after 24 hrs using hematoxylin-eosin by microscopy-based transwell assay relative to control; format: functional
Homo sapiens [2] = species on record: Homo sapiens; test: Inhibition of NFkappaB in human A549RT-eto cells assessed as suppression of sphere formation by measuring decrease in spheroid size at 1.5 ug/mL treated for 24 hrs followed by cell culture for 6 days and measured over 48 hrs by optical microscopic method; format: cell-based
Homo sapiens [3] = species on record: Homo sapiens; test: Inhibition of NFkappaB in human A549RT-eto cells assessed as down regulation of Bmi1 expression by immunoblotting analysis; format: cell-based
Homo sapiens [4] = species on record: Homo sapiens; test: Induction of apoptosis in human A549RT-eto cells transfected with NF-kappaB siRNA assessed as increase in cleaved PARP expression at 1.5 ug/ml by immunoblotting analysis; format: functional, cell-based
Homo sapiens [5] = species on record: Homo sapiens; test: Inhibition of NFkappaB in human A549RT-eto cells assessed as reduction in epithelial-mesenchymal transition by measuring up regulation of E-Cadherin expression at 1 to 1.5 ug/ml after 24 hrs by immunoblotting analysis; format: cell-based
Homo sapiens [6] = species on record: Homo sapiens; test: Induction of apoptosis in human A549RT-eto cells transfected with NF-kappaB siRNA assessed as increase in pro-caspase 9 expression at 1.5 ug/ml by immunoblotting analysis; format: functional, cell-based
Homo sapiens [7] = species on record: Homo sapiens; test: Inhibition of NFkappaB in human A549RT-eto cells assessed as down regulation of P-gp expression at 1 to 5 ug/ml measured after 24 hrs by immunoblotting analysis; format: cell-based
A549 = test: Cytotoxicity against human A549 cells assessed as reduction in cell viability after 72 hrs by MTT assay; format: functional, cell-based; details: A549, 72 h
Homo sapiens [8] = species on record: Homo sapiens; test: Cytotoxicity against human A549RT-eto cells assessed as cell death after 24 hrs by MTT assay; format: functional, cell-based
Homo sapiens [9] = species on record: Homo sapiens; test: Down regulation of NFkappaB expression in human A549RT-eto cells at 1 to 5 ug/ml measured after 24 hrs by immunoblotting analysis; format: functional, cell-based
Homo sapiens [10] = species on record: Homo sapiens; test: Inhibition of NFkappaB in human A549RT-eto cells assessed as down regulation of Oct4 expression by immunoblotting analysis; format: cell-based
Homo sapiens [11] = species on record: Homo sapiens; test: Induction of apoptosis in human A549RT-eto cells assessed as increase in PARP level at 1 to 5 ug/ml measured after 24 hrs by immunoblotting analysis; format: functional, cell-based
Homo sapiens [12] = species on record: Homo sapiens; test: Inhibition of NFkappaB in human A549RT-eto cells assessed as reduction in epithelial-mesenchymal transition by measuring down regulation of N-Cadherin expression at 1 to 1.5 ug/ml after 24 hrs by immunoblotting analysis; format: cell-based
Homo sapiens [13] = species on record: Homo sapiens; test: Induction of apoptosis in human A549RT-eto cells assessed as reduction in […] 9 level at 1 to 5 ug/ml measured after 24 hrs by immunoblotting analysis; format: functional, cell-based
Homo sapiens [14] = species on record: Homo sapiens; test: Down regulation of NFkappaB expression in human A549RT-eto cells transfected with NF-kappaB siRNA at 1.5 ug/ml by immunoblotting analysis; format: functional, cell-based
Homo sapiens [15] = species on record: Homo sapiens; test: Antimigratory activity in human A549RT-eto cells assessed as decrease in cell migration at 1.5 ug/ml for 24 hrs by phase contrast microscopy-based scratch would healing assay; format: functional
Homo sapiens [16] = species on record: Homo sapiens; test: Down regulation of P-gp expression in human A549RT-eto cells transfected with NF-kappaB siRNA at 1.5 ug/ml by immunoblotting analysis; format: functional, cell-based
Homo sapiens [17] = species on record: Homo sapiens; test: Inhibition of NFkappaB in human A549RT-eto cells assessed as downregulation of Nanog expression by immunoblotting analysis; format: cell-based
Homo sapiens [18] = species on record: Homo sapiens; test: Inhibition of NFkappaB in human A549RT-eto cells assessed as reduction in epithelial-mesenchymal transition by measuring down regulation of vimentin expression at 1 to 1.5 ug/ml after 24 hrs by immunoblotting analysis; format: cell-based
Homo sapiens [19] = species on record: Homo sapiens; test: Inhibition of NFkappaB in human A549RT-eto cells assessed as down regulation of S0x2 expression by immunoblotting analysis; format: cell-based
Homo sapiens [20] = species on record: Homo sapiens; test: Induction of apoptosis in human A549RT-eto cells assessed as reduction in […] 8 level at 1 to 5 ug/ml measured after 24 hrs by immunoblotting analysis; format: functional, cell-based
Homo sapiens [21] = species on record: Homo sapiens; test: Inhibition of NFkappaB in human A549RT-eto cells assessed as suppression of sphere formation by measuring decrease in number of spheroid formation at 1.5 ug/mL treated for 24 hrs followed by cell culture for 6 days and measured over 48 hrs by optical microscopic method; format: cell-based
Homo sapiens [22] = species on record: Homo sapiens; test: Induction of apoptosis in human A549RT-eto cells transfected with NF-kappaB siRNA assessed as increase in pro-caspase 8 expression at 1.5 ug/ml by immunoblotting analysis; format: functional, cell-based
Homo sapiens [23] = species on record: Homo sapiens; test: (§1) Cytotoxicity against human A549RT-eto cells assessed as reduction in cell viability after 72 hrs by MTT assay; format: functional, cell-based
[24] = as §1; format: functional, cell-based

CO[C@@]12C=C3C(=O)c4c(O)cccc4O[C@@]34[C@@H](C1)C(C)(C)O[C@@]4(CC=C(C)C)C2=O
4.96 µg/mL: IC50 [24]
2: fold change (FC) [1]
2.51 µg/mL: IC50 (A549)
active: inhibition (Homo sapiens [2]) | inhibition (Homo sapiens [3]) Dose-dependent effect | Activity (Homo sapiens [4]) | inhibition (Homo sapiens [5]) | Activity (Homo sapiens [6]) | inhibition (Homo sapiens [7]) | Activity (Homo sapiens [8]) | Activity (Homo sapiens [9]) | inhibition (Homo sapiens [10]) Dose-dependent effect | Activity (Homo sapiens [11]) | inhibition (Homo sapiens [12]) | Activity (Homo sapiens [13]) | Activity (Homo sapiens [14]) | Activity (Homo sapiens [15]) | Activity (Homo sapiens [16]) | inhibition (Homo sapiens [17]) Dose-dependent effect | inhibition (Homo sapiens [18]) | inhibition (Homo sapiens [19]) Dose-dependent effect | Activity (Homo sapiens [20]) | inhibition (Homo sapiens [21]) | Activity (Homo sapiens [22]) | Activity (Homo sapiens [23]) Dose-dependent effect
